Laboratory results published in PubChem BioAssay (NCI).
“And” between values parts separate entries of the source, which are not always exact repeats. Equal values may be shown once.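 Growth conditions: 96-well plates. Treatment: test compound, 48 hours, 5 concentrations. Analysis: linear interpolation between bracketing concentrations; unreached endpoints set to highest concentration. GI50 marks 50% less growth. TGI: concentration producing complete growth inhibition.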

Assays:
Assay in all cases: inhibition of tumour cell growth, NCI panel, 48 h
[1] = test system: HL-60(TB) leukemia
[2] = test system: KM12 colon
[3] = test system: MCF7 breast
[4] = test system: MDA-MB-231 breast
[5] = test system: NCI-H226 lung
[6] = test system: NCI-H460 lung
[7] = test system: PC-3 prostate
[8] = test system: RPMI-8226 leukemia
[9] = test system: RXF 393 renal
[10] = test system: SK-MEL-5 melanoma

For `O=c1c2ccccc2sc2cccc(NCCCN3CCN(CCCNc4cccc5sc6ccccc6c(=O)c45)CC3)c12`, the TGI [1] was > 100 µM, the TGI [2] was > 100 µM and the TGI [3] was > 100 µM. The TGI [4] was > 100 µM, the TGI [5] was > 100 µM and the TGI [6] was > 100 µM. For the same compound, the TGI [7] was > 100 µM, the TGI [8] was > 100 µM and the TGI [9] was > 100 µM. The TGI [10] was > 100 µM.

For `COc1cc(CNCCCN2C(=O)c3ccc4c5c(ccc(c35)C2=O)C(=O)N(CCCNCc2cc(OC)c(OC)c(OC)c2)C4=O)cc(OC)c1OC`, the GI50 [1] was 0.919 µM, the TGI [1] was 1.97 µM and the GI50 [2] was 0.238 µM. It also gave a TGI [2] of 0.834 µM, a GI50 [3] of 0.242 µM and a TGI [3] of 0.643 µM. It also gave a GI50 [4] of 0.252 µM, a TGI [4] of 2.27 µM and a GI50 [5] of 0.814 µM. It also gave a TGI [5] of 2 µM, a GI50 [6] of 0.316 µM and a TGI [6] of 1.04 µM. The GI50 [7] was 0.387 µM, the TGI [7] was 1.57 µM and the GI50 [8] was 0.523 µM. It also gave a TGI [8] of 2.34 µM, a GI50 [9] of 0.35 µM and a TGI [9] of 0.99 µM. It also gave a GI50 [10] of 0.39 µM and a TGI [10] of 1.03 µM.

For `Ic1ccc(-n2nnnc2-c2cnoc2-c2ccccc2)cc1`, the GI50 [1] was 78.9 µM, the TGI [1] was > 100 µM and the GI50 [2] was 47.1 µM. The TGI [2] was > 89.6 µM, the GI50 [3] was 35.2 µM and the TGI [3] was > 100 µM. The GI50 [4] was > 51.9 µM, the TGI [4] was > 91.2 µM and the GI50 [5] was 43 µM. The TGI [5] was > 78.9 µM, the GI50 [6] was 35 µM and the TGI [6] was > 100 µM. For the same compound, the GI50 [7] was > 34.4 µM, the TGI [7] was > 71.4 µM and the GI50 [8] was 22.4 µM. The TGI [8] was > 64 µM, the GI50 [9] was 43.1 µM and the TGI [9] was > 100 µM. For the same compound, the GI50 [10] was 25.7 µM and the TGI [10] was > 72.7 µM.

With `COc1cc(-c2nn(-c3cccc(NC(=O)Nc4ccc(Cl)c(Cl)c4)c3)cc2-c2ccncc2)ccc1Cl` the GI50 [1] was 1.66 µM, the TGI [1] was > 50 µM and the GI50 [2] was 0.811 µM. The TGI [2] was 2.77 µM, the GI50 [3] was 0.945 µM and the TGI [3] was > 50 µM. The GI50 [4] was 0.698 µM, the TGI [4] was 1.92 µM and the GI50 [5] was 1.35 µM. For the same compound, the TGI [5] was > 50 µM, the GI50 [6] was 1.11 µM and the TGI [6] was > 50 µM. It also gave a GI50 [7] of 0.554 µM, a TGI [7] of 2.83 µM and a GI50 [8] of 0.388 µM. The TGI [8] was 3.26 µM, the GI50 [9] was 0.859 µM and the TGI [9] was 2.44 µM. The GI50 [10] was 0.741 µM and the TGI [10] was 1.49 µM.

With `CC(=O)OC12c3ccccc3-c3ccccc3C1C1C(=O)N(C)C(=O)C12Cl` (stereo not given) the TGI [1] was > 10 µM, the TGI [2] was > 10 µM and the TGI [3] was > 10 µM. For the same compound, the TGI [4] was > 10 µM, the TGI [5] was > 10 µM and the TGI [6] was > 10 µM. The TGI [7] was > 10 µM, the TGI [8] was > 10 µM and the TGI [9] was > 10 µM. The TGI [10] was > 10 µM.

For `C1CSCCSCCS1`, the TGI [1] was > 100 µM, the TGI [2] was > 100 µM and the TGI [3] was > 100 µM. The TGI [4] was > 100 µM, the TGI [6] was > 100 µM and the TGI [7] was > 100 µM. The TGI [8] was > 100 µM, the TGI [9] was > 100 µM and the TGI [10] was > 100 µM.

`COC1C(O)=C2C(=O)O/C(C)=C/C=C/C=C/C=C\CC(c3ccccc3)NC(=O)\C=C/C=C\C=C\C=C\[C@@]2(C)[C@@H]1O` (stereo not given in full) gave a TGI [1] of 0.0421 µM, a TGI [2] of 0.165 µM and a TGI [3] of 0.0175 µM. It also gave a TGI [4] of 0.0896 µM, a TGI [5] of 0.273 µM and a TGI [7] of 0.103 µM. It also gave a TGI [8] of 0.0445 µM, a TGI [9] of 0.0962 µM and a TGI [10] of 0.199 µM.

`Cc1[nH]c2ccccc2c1-c1cc(-c2cc(-c3c(C)[nH]c4ccccc34)on2)no1` was tested, and the TGI [1] was > 100 µM, the TGI [2] was > 100 µM and the TGI [3] was > 100 µM. For the same compound, the TGI [4] was > 100 µM, the TGI [5] was > 100 µM and the TGI [6] was > 100 µM. For the same compound, the TGI [7] was > 100 µM, the TGI [8] was > 100 µM and the TGI [9] was > 100 µM. The TGI [10] was > 100 µM.

Compound `COc1cccc2c1C(=O)c1c(O)c3c(c(O)c1C2=O)CC(O)(/C(C)=N/NC(=O)CCC(=O)N/N=C(\C)C1(O)Cc2c(O)c4c(c(O)c2C(OC2CC(N)C(O)C(C)O2)C1)C(=O)c1c(OC)cccc1C4=O)CC3OC1CC(N)C(O)C(C)O1` (stereo not given) has a GI50 [1] of 0.397 µM, a TGI [1] of 4.23 µM and a GI50 [2] of 0.755 µM. For the same compound, the TGI [2] was > 14.5 µM, the GI50 [3] was 0.0676 µM and the TGI [3] was 7.41 µM. The GI50 [4] was 1.17 µM, the TGI [4] was > 50 µM and the GI50 [5] was 0.324 µM. It also gave a TGI [5] of 1.39 µM, a GI50 [6] of 0.0981 µM and a TGI [6] of 0.947 µM. For the same compound, the GI50 [7] was 0.958 µM, the TGI [7] was > 21.2 µM and the GI50 [8] was 0.209 µM. For the same compound, the TGI [8] was 4.17 µM, the GI50 [9] was 0.376 µM and the TGI [9] was 1.35 µM.

`Cc1ccc(/C=C/c2c(C(=O)/C=C/c3ccc(C(F)(F)F)cc3)c(C)nc3ccccc23)cc1` was tested, and the GI50 [1] was 1.25 µM, the TGI [1] was 3.66 µM and the GI50 [2] was 2.06 µM. It also gave a TGI [2] of 5.03 µM, a GI50 [3] of 0.557 µM and a TGI [3] of 2.3 µM. It also gave a GI50 [4] of 1.65 µM, a TGI [4] of 3.43 µM and a GI50 [5] of 1.5 µM. The TGI [5] was 3.03 µM, the GI50 [6] was 1.53 µM and the TGI [6] was 3.22 µM. It also gave a GI50 [7] of 1.64 µM, a TGI [7] of 3.68 µM and a GI50 [8] of 0.46 µM. It also gave a TGI [8] of 2.92 µM, a GI50 [9] of 1.12 µM and a TGI [9] of 2.41 µM. The GI50 [10] was 1.54 µM and the TGI [10] was 2.87 µM.

`CCN1CCN=c2c3cc(OC)ccc3n3cnc4ccc1c2c43` gave a TGI [1] of 0.483 µM, a TGI [2] of 1.21 µM and a TGI [3] of 0.993 µM. The TGI [4] was 0.814 µM, the TGI [5] was 0.718 µM and the TGI [6] was 0.308 µM. The TGI [7] was 0.8 µM, the TGI [8] was 0.558 µM and the TGI [9] was 1.05 µM. For the same compound, the TGI [10] was 0.784 µM.

In the case of `CC(=O)c1cc2c(o1)C(=O)c1ccccc1C2=O`, the GI50 [1] is reported as 0.241 µM and 0.271 µM, the TGI [1] is reported as 0.641 µM and 0.773 µM and the GI50 [2] is reported as 0.543 µM and 0.713 µM. The TGI [2] was 1.62 µM and 2.09 µM, the GI50 [3] was 0.167 µM and 0.171 µM and the TGI [3] was 0.394 µM. For the same compound, the GI50 [4] was 0.765 µM and 1.66 µM, the TGI [4] was 4.29 µM and 6.88 µM and the GI50 [5] was 0.226 µM and 0.212 µM. For the same compound, the TGI [5] was 0.5 µM and 0.472 µM, the GI50 [6] was 0.21 µM and 0.194 µM and the TGI [6] was 0.422 µM and 0.375 µM. For the same compound, the GI50 [7] was 0.713 µM and 0.825 µM, the TGI [7] was 2.81 µM and 4.48 µM and the GI50 [8] was 0.731 µM and 0.917 µM. For the same compound, the TGI [8] was 1.8 µM and 3.86 µM, the GI50 [9] was 0.239 µM and 0.249 µM and the TGI [9] was 0.563 µM and 0.634 µM. The GI50 [10] was 0.169 µM and 0.173 µM and the TGI [10] was 0.31 µM and 0.316 µM.

Compound `Nc1nccc2c1ccn2-c1ccc(NC(=O)c2ccc(N3CCOCC3)c(C(F)(F)F)c2)cc1` has a GI50 [1] of 0.479 µM, a GI50 [2] of 0.557 µM and a TGI [2] of 8.5 µM. It also gave a GI50 [3] of 0.316 µM, a TGI [3] of 1.41 µM and a GI50 [4] of 0.346 µM. The TGI [4] was 1.47 µM, the GI50 [5] was 5.62 µM and the TGI [5] was 20 µM. The GI50 [6] was 0.352 µM, the TGI [6] was 1.65 µM and the GI50 [7] was 0.499 µM. The TGI [7] was 17.4 µM, the GI50 [8] was 0.311 µM and the TGI [8] was 2.88 µM. The GI50 [9] was 0.158 µM, the TGI [9] was 0.378 µM and the GI50 [10] was 0.944 µM. The TGI [10] was 2.28 µM.

With `CC(CC(=O)O)C(C(=O)O)C(=O)O` (stereo not given) the TGI [1] was > 100 µM, the TGI [2] was > 100 µM and the TGI [3] was > 100 µM. The TGI [4] was > 100 µM, the TGI [5] was > 100 µM and the TGI [6] was > 100 µM. The TGI [7] was > 100 µM, the TGI [8] was > 100 µM and the TGI [9] was > 100 µM. The TGI [10] was > 100 µM.

`CCCn1c(N)c(C(=O)N/N=C(/C)c2cc3cccc(OC)c3o2)sc1=S` was tested, and the GI50 [1] was > 100 µM, the TGI [1] was > 100 µM and the GI50 [2] was 22.2 µM. The TGI [2] was > 100 µM, the GI50 [3] was 28 µM and the TGI [3] was > 100 µM. The GI50 [4] was > 100 µM, the TGI [4] was > 100 µM and the GI50 [5] was 45.2 µM. The TGI [5] was > 100 µM, the GI50 [6] was 17.7 µM and the TGI [6] was > 100 µM. For the same compound, the GI50 [7] was 30.6 µM, the TGI [7] was > 100 µM and the GI50 [8] was 53.6 µM. For the same compound, the TGI [8] was > 100 µM, the GI50 [9] was 24.1 µM and the TGI [9] was > 100 µM. The GI50 [10] was 36.1 µM and the TGI [10] was > 100 µM.
